Results on four molecules are retold here after patent US20030198614A1, “Hair growers” (priority 2000, published 2003).

Assay type in all cases: cell-based
Assay [1] relates to cultured human trichoepithelial cell. As to the kind of experiment: Trichoepithelial cell growth promoting effect test. Particulars: 1.0×10^-6 mol/L, 2 days, Alamer Blue; negative control = 0, positive control (insulin + hydrocortisone) = 1. As for the experimental part:
According to the method described in JP-A-2000-63242, a cultured trichoepithelial cell of a human scalp was used to measure a trichoepithelial cell growth promoting effect.
From a human scalp obtained as a by-product of a surgical operation, a hair follicle at a anagen stage in a hair cycle was isolated mechanically under the observation by a stereoscopic microscope. This hair follicle at a anagen stage was treated in a Dulbecco's modified MEM (DMEM) supplemented with 1000 U/ml dispase and 0.2% collagenase for 30 minutes at 37° C. Adipose tissues, connective tissue root sheath and dermal papilla were removed therefrom using the tip of a syringe needle and the hair follicle was treated in a phosphate buffer containing 0.05% EDTA for 5 minutes at 37° C.
Subsequently, the hair follicle was placed on a culture dish coated with Type I collagen, and incubated in a KGM medium (serum-free keratinocyte growth medium). After incubation for 4 to 5 days, the culture medium was exchanged upon ensuring the adhesion of the hair follicle on the bottom face of the culture dish and the growth of the trichoepithelial cell, and thereafter the culture medium was exchanged every 2 days.
After the cell thus proliferated was treated in a phosphate buffer containing 0.05% trypsin and 0.02% EDTA for 5 minutes at 37° C., the reaction was quenched using an equal volume of 0.1% trypsin inhibitor and the cell was recovered by centrifugation (800×g, 5 minutes).
Subsequently, the cell was suspended in the serum-free culture medium described above, and inoculated at the density of 5000 cells/cm^2 onto a culture dish coated with Type I collagen. The culture medium was exchanged every 2 days until the cell became subconfluent. After treating the cell again in the phosphate buffer containing 0.05% trypsin and 0.02% EDTA for 5 minutes at 37° C., the reaction was quenched using an equal volume of 0.1% trypsin inhibitor and the cell was recovered by centrifugation (800×g, 5 minutes). The human trichoepithelial cell thus obtained was adjusted at the concentration of 100,000 cells/ml with a cell cryopreservation solution (Cellbanker: DIA-IATRON) added thereto, and dispensed into each freezing tube as a 100,000 cells (1 ml), which was then stored as being frozen. The cell counts described above were calculated using a hemocytometer.
After inoculating the trichoepithelial cell obtained in the step described above into a culture flask, the cell was treated with a phosphate buffer containing 0.25% trypsin and 0.02% EDTA. The reaction was quenched with 0.1% trypsin inhibitor, and then the mixture was centrifuged at 1,500 rpm for 5 minutes. The supernatant was removed, and the precipitated cell pellet was combined with a KGM medium to prepare a cell suspension.
The cell suspension in the KGM medium was inoculated to a Type I collager-coated 96-well microplate (Falcon) at 3,000 cells (0.2 ml)/well and allowed to stand for about 20 minutes at room temperature until the cell went down onto the bottom. Then, the cell was cultured for 1 day in an incubator in the presence of 5% CO2 at 37° C., whereby obtaining an intended cultured human trichoepithelial cell.
A test material and DMSO were added to a KGM medium at the final concentrations of 1.0×10^−6 mol/L and 0.1%, respectively.
Negative control: DMSO was added to a KGM medium at the final concentration of 0.1%.
Positive control: Insulin and hydrocortisone were dissolved in DMSO, which was then added to a KGM medium. The final concentrations of insulin, hydrocortisone and DMSO were 5 μg/ml, 0.5 μg/ml and 0.1%, respectively.
The KMG medium in the 96-well microplate employed for preparing the cultured human trichoepithelial cell in Step A described above was exchanged with a test material-supplemented medium or a control medium (200 μl/well), and the incubation was continued for 2 days in the presence of 5% CO2 at 37° C. […]

The nature of assay [2]: Hair regrowth inducing effect test by cell cluster-accompanied culture method. The conditions noted are these: Homo sapiens, Human dermal papilla cell, 48 h, 2 days, Alamer Blue fluorescence, relative to negative control, read-out: Relative respiration level (%). Here is the method: The hair regrowth inducing effect was evaluated using, as an index, an increase in respiration level of a cell cluster formed under the coexistence of a normal human outer root sheath cell and a normal human dermal papilla cell.
Normal human dermal papilla cell (DP): A DP obtained by a primary culture from a head hair was subcultured three times in a 10% FBS-supplemented DMEM medium in a 75 cm^2 incubation flask coated with Type I collagen, and then stored while being frozen in a liquid nitrogen using a cell cryopreservation solution (Cellbanker II: DIA-IATRON).
Normal human outer root sheath cell (ORS): An ORS obtained by a primary culture from a head hair was subcultured three times in a SFM medium in a 75 cm^2 incubation flask coated with Type I collagen, and then stored while being frozen in a liquid nitrogen using Cellbanker II.
The DP and ORS cells stored as frozen were thawed, washed with an ice-cooled SFM medium, dispersed in the same medium and subjected to an accurate cell density measurement using a hemocytometer. Each cell density was adjusted at 5×10^4 cells/ml accurately, and the cell dispersions in equal volumes were combined under cooling with ice. 80 μl aliquots of the combined cell suspending SFM medium were inoculated into individual wells of a 96-well microplate (Sumilon celltight, spheroid 96U plate), and incubated for 2 days. The cell count in a single well upon inoculation was 2,000 cells for each of DP and ORS, thus 4,000 cells in total.
Each 80 μl of a test material-supplemented William's E(+) medium (William's E medium supplemented with 10 μg/ml transferrin, 10 ng/ml hydrocortisone, 10 μg/ml insulin and 10 ng/ml sodium selenite) was added to each well and incubated further for 2 days.
The test material-supplemented William's E(+) medium added to each well was prepared by dissolving the test material in ethanol at a concentration of 10 mM or 100 mM and adding to William's E(+) medium at 0.2% each. Accordingly, the final concentration of the test material in each well was 10 μM or 100 μM, and each final concentration of ethanol was 0.1%.
As a negative control, 80 μl of William's E(+) medium containing 0.2% ethanol was added (final concentration of ethanol was 0.1%).
Alamer Blue, SFM medium and William's E(+) medium were mixed in 2:1:1 ratio, warmed at 37° C. and then 40 μl aliquots were added to individual wells and allowed to react for 6 hours at 37° C. After completion of the reaction, 100 μl aliquots were taken from individual wells, and transferred to a white 96-well plate for fluorescence measurement (Opaque Plate).
A fluorometer (Labsystems Fluoroskan II) was used at the excitation wavelength of 544 nm and the fluorescent wavelength of 590 nm to measure the fluorescence intensity of each well, from which the fluorescent intensity of a cell-free reaction mixture (i.e., the reaction mixture treated similarly using a cell-free SFM medium) was subtracted to obtain a respiration level under each condition. From thus obtained respiration level, a relative respiration level(%) was calculated according to the following equation.
Relative respiration level(%)={Respiration level (test material)}/{Respiration level (negative control)}×100

Assay [3] has as its system human hair follicle in the anagen stage. As to the kind of experiment: Investigation of hair shaft elongation (organ culture of human hair follicle). Particulars: 1.0×10^-5 mol/L, 5-day incubation, 9 hair follicles per group. As for the experimental part:
A hair follicle in the anagen stage was isolated from a human scalp under a stereoscopic microscope observation, washed with “a medium prepared by adding penicillin, streptomycin and fungizone to Williams E medium (Gibco)” (hereinafter referred to as a (−) medium) and then examined for its length.
A medium obtained by supplementing the (−) medium further with 10 ng/ml hydrocortisone, 10 μg/ml insulin, 10 ng/ml sodium selenite and 10 μg/ml transferring (hereinafter ter referred to as a (+) medium) was dispensed in an aliquot of 1 ml per well into a 24-well microplate. The hair follicle described above was precipitated therein and incubated overnight at 37° C. in the presence of 5% CO2 (preincubation).
The elongation of the hair shaft in a hair follicle was determined by inspecting the microplate described above visually using an inverted microscope with a micrometer attached thereto.
A DMSO solution of a test material was added to a (−) medium for preparation. The final concentrations of the test material and DMSO were 1.0×10^−5 mol/L and 0.1%, respectively.
Only DMSO was added to a (−) medium at the final concentration of 0.1% for preparation.
The culture medium of the hair follicle groups described above was replaced each with the test materialcontaining medium or negative control medium, and the incubation was continued further for 5 days at 37° C. in the presence of 5% CO2. The length of each hair after 5-day incubation was measured, and the means were compared with each other.

As for `CCCCCCCCCCCCCCCCCC(=O)OCC(CO)OC` (stereo not shown) [Compound 6, 3-Hydroxy-2-methoxypropyl stearate], the “Cell growth promoting index” value in assay [1] was determined as 1.3. Moreover, in assay [2], the activity at 10 µM was 101% and the activity at 100 µM amounted to 102%. Moreover, in assay [3], the “Mean of hair shaft elongation” value was determined as 1.7 mm.
For `CCCCCCCCCCCCCCCCOC(CO)CO` [Compound 7, 2-Hexadecyloxy-1,3-propanediol], in that order: 1.5, 122%, 129% and 1.2 mm.
For `CCCCCCCCCCCCCCCCCCOCC(C)(C)CO` [Compound 8, 2,2-Dimethyl-3-octadecyloxy-1-propanol], in that order: 1.2, 106%, 112% and 1.7 mm.
For `CCCCCCCCCCCCCCCCCCC(O)CO` (stereo not shown) [Compound 9, 1,2-eicosanediol], in that order: 1.2, 130%, 132% and 1.5 mm.
